Data from article PMC6277780, “A Multi-Mode Bioactive Agent Isolated From Ficus microcarpa L. Fill. With Therapeutic Potential for Type 2 Diabetes Mellitus” (Frontiers in Pharmacology, 2018).
Values belong to the compound of their own block, whether it stands above or below them.

Assays:
DPP-4 = DPP-4 (Homo sapiens, UniProt P27487); test: DPP-4 inhibition assay (fluorometric, Gly-Pro-AMC); type: biochemical; details: pure compound and positive control
Protocol: DPP-4 inhibition activity was assessed by using fluorometric technique, following the method documented by [Saleem et al., 2014]. This method calculates the quantity of free AMC (7-amino-4-methyl-coumarin). The AMC is released from the Gly-Pro-AMC which is the substrate of DPP-4. Experiment was performed in triplicate. Fluorescence was measured at Em 430 nm following excitation at Ex351 nm using a Tecan safire desktop fluorometer (Reading, England, United Kingdom). 50 mM HEPES buffer was used for preparation of each sample, whose pH was 7.4. To each well we added DPP-4 (20 μl 1 U/ml), test sample (20 μl) and […]. Plates were placed at 37°C for 1 h and then 3 mM acetic acid (100 μl) was pipetted to stop the reaction. We used Berberine (13 mM), as a control for each experiment, as already reported ([Al-Masri et al., 2009]). IC50 for inhibition of DPP-4 was calculated for each sample.

α-glucosidase = α-glucosidase (Saccharomyces cerevisiae, UniProt P53341); test: α-Glucosidase inhibition assay (pNPG substrate, 405 nm); type: biochemical; details: Table 1, unit inferred
Chain of α-glucosidase (P53341 whole entry): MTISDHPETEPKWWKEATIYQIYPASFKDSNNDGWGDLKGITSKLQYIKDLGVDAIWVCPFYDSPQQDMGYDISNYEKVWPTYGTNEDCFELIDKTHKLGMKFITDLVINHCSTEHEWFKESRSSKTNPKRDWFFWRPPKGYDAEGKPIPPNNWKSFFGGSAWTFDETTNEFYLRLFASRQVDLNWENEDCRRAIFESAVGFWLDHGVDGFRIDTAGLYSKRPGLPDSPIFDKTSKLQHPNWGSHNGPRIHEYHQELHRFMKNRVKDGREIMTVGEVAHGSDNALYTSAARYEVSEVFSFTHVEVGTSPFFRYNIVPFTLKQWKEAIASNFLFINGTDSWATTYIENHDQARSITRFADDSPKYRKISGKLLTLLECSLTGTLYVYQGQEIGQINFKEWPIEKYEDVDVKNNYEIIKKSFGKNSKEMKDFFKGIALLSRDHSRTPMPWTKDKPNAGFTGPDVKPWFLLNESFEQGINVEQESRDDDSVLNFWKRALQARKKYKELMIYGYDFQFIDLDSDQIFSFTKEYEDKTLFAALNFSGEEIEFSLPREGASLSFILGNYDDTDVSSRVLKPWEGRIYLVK
Protocol: α-Glucosidase inhibition activity of the fractions and pure compounds (both PA and FL) was determined using the method of [Li et al. (2005)], while few modifications were made, according to system suitability. […] The decrease in absorption spectrum of reaction mixture indicated the inhibition of α-glucosidase activity of the sample under test. Assays were conducted in triplicate in 96-well microtitre plates. […] Percentage of inhibition was calculate by using following formula.
(1) Inhibitory activity=(OD control−OD test sample)/OD control×100
IC50 was calculated by using table curve ASIN software (2D v4) through linear regression analysis.

AMPK = AMPK activation potential in primary hepatocytes (western blot); type: cell-based, C57BL/6 mice; details: 8 h, PA 20 μM, glucagon 2 μM
Protocol: To evaluate the AMPK activation potential of PA we performed in vitro analysis. We used primary hepatocytes, derived from C57BL/6 mice (Cell Biologics; Cat. C57-6224F). Hepatocytes were kept in M199 (Corning), supplemented with FBS (fetal bovine serum 10%) and glutagro (1% Corning). Hepatocytes were then serum starved, overnight, and prior to procedure in RPMI 1640 (United States Biological Life Sciences, R8999). 8 h prior to harvest, cells were treated with glucagon (2 μM), or test sample (20 μM). Cells were rinsed with ice cold PBS, twice, after harvest and were placed on ice until the extraction of protein was carried out. Assay was conducted in triplicate with three plates for each treatment. Protein from cells was hauled out; quantified and western blot was performed to assess the activation of AMPK after treatment with PA and compared it with untreated control and the cells treated with glucagon.
Extraction of proteins and western blot analysis was carried out, as we already reported ([Akhtar et al., 2016]). Briefly, lysis buffer was added to the harvested cells. […] Concentration of protein in each lysate was measured using Pierce BCA protein assay kit (Thermo Scientific), as per manufacturer’s protocol. […]

Chain of DPP-4 (P27487 whole entry, species assumed): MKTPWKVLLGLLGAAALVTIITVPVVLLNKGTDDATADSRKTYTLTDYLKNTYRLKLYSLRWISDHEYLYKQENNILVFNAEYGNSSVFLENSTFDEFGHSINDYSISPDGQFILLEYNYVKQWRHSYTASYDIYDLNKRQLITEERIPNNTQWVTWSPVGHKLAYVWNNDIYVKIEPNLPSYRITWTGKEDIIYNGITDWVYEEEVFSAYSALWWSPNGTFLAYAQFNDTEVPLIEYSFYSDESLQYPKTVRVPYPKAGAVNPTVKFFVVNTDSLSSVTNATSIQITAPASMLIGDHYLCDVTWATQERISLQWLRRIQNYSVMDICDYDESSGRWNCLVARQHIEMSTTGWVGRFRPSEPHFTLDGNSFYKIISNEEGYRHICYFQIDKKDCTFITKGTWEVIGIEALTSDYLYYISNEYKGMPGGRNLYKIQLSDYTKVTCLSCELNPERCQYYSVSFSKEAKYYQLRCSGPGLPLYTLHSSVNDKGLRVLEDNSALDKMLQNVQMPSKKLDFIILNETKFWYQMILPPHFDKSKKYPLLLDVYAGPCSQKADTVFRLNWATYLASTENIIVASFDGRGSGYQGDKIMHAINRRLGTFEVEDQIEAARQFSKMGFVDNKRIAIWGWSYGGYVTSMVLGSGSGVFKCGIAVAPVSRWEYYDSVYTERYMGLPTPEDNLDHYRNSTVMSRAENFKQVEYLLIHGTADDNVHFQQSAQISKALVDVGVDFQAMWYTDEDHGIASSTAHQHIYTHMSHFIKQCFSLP

IC50 (DPP-4): 27.4 ± 2.2 µM
Compound: COc1ccc2cc3[n+](cc2c1OC)CCc1cc2c(cc1-3)OCO2 [Berberine, reference compound]

Compound: 3,4,5,7-Flavantetrol
IC50 (α-glucosidase): 200 µM

Compound: glucagon [reference compound]
AMPK activation (phosphorylation of AMPK at Thr172) (AMPK): no AMPK activation
phosphorylation of ACC to p-ACC at S79 (AMPK): not observed
